# Laboratory results published in patent US7667052B2 (Eisai R&D Management Co., Ltd., priority 2003, dated 2010).
# Tested on: transcription from VEGF promoter
# Assay: VEGF transcription-suppressing activity, VEGF-PLAP reporter in U251/1-8 cell
# Type: cell-based
# Settings: Homo sapiens, U-251; U251/1-8 cell, PLAP activity, low oxygen 18 hours; read-out: IC50 values of VEGF transcription-suppressing activity (range given)
# From the text: In order to prepare reporter system reflecting transcription from VEGF promoter, VEGF promoter sequence was cloned, and inserted in secretory alkali phosphatase (PLAP) vector to construct reporter vector.
# In order to obtain the promoter region of human VEGF, VEGF genome was cloned from phage library. PCR primers having the sequences described in Sequence Numbers 1 and 2 were designed based on VEGF cDNA (GenBank accession number: X62568) and a fragment having about 340 bp was obtained by carrying out PCR. Human genome phage library (Human genomic library, Clontech Co.) was screened using this as a probe to obtain pUC18-VEGFA containing about 5.4 kb of VEGF 5′ flanking region. The pUC18-VEGFA was cleaved by KpnI/NheI, VEGF promoter region of about 2.3 kb obtained was inserted in the multi cloning site KpnI/NheI of secretory alkali phosphatase (PLAP) vector (Goto et al, Mol. Pharmacol., 49, 860-873, 1996), and thus, VEGF-PLAP vector was constructed.
# The above-mentioned VEGF-PLAP vector was introduced in the U251 cell cultured in the DULBECCO-modified eagle medium (DMEM; manufactured by SIGMA Co., Ltd.) containing 10% fetal calf serum, and cultured in the presence of 1 mg/ml G418 (Merck Co.) to establish G418 resistant stable clone (U251/1-8 cell).
# It was confirmed that U251/1-8 cell secreted PLAP under low oxygen (2% O2 incubator) in the same manner as in the report (Cell. Mol. Biol. Res. 40, 35-39, 1994) and was a reporter system reflecting the transcription from VEGF promoter. The screening of the compound suppressing VEGF production which was induced by low oxygen stimulation was carried out below using the clone.
# In order to remove the influence of alkaline phosphates in serum, U251/1-8 cell was rinsed twice with the adequate amount of PBS (Phosphate buffered saline), diluted in the DMEM medium containing 10% of serum in which alkaline phosphates was inactivated by the treatment of 60° C. for 20 min., and dispensed in 96-well plates by 4×10^4 cells/180 μl.
# After culturing at 37° C. overnight in a CO2 incubator (5% CO2), 20 μL of the above-mentioned incubation solution containing the test compound diluted with 3-fold succession was added, and then they were incubated in a low oxygen ([…]) incubator for 18 hours. With respect to the PLAP activity in the culture supernatants, 10 μl of the supernatants was added to 50 μl of 0.28 M Na2CO3—NaHCO3 buffer solution (pH 10.0, 8.0 mM MgSO4), and finally 50 μl of alkaline phosphatase substrate (LUMISTEIN, Genomescience Co.) was added. After reacting for one hour, the alkaline phosphatase activity of the PLAP was measured by detecting the chemical luminescence by a micro plate reader (Perkin-Elmer Co.).
# The PLAP activity under usual oxygen was set as 0%, the PLAP activity of cell which was treated under low oxygen was set as 100%, and the concentration suppressing the PLAP activity by 50% was set as the IC50 value of PLAP.
row,Compound,IC50
1,"CCC(O)C(C)C1OC1CC(C)/C=C/C=C(\C)C1OC(=O)CC(O)CCC(C)(O)C(OC(=O)NCCN(C)C)/C=C/C1C (stereo not shown) [B54, (8E,12E,14E)-7-(N-(2-Dimethylamino)ethyl)carbamoyloxy-3,6,21-trihydroxy-6,10,12,16,20-pentamethyl-18,19-epoxytricosa-8,12,14-trien-11-olide]",0.5 to 100 nM
2,"CCC(O)C(C)C1OC1CC(C)/C=C/C=C(\C)C1OC(=O)CC(O)CCC(C)(O)C(OC(=O)NCCCN(C)C)/C=C/C1C (stereo not shown) [B55, (8E,12E,14E)-7-(N-(3-Dimethylamino)propyl)carbamoyloxy-3,6,21-trihydroxy-6,10,12,16,20-pentamethyl-18,19-epoxytricosa-8,12,14-trien-11-olide]",0.5 to 100 nM
3,"CCC(O)C(C)C1OC1CC(C)/C=C/C=C(\C)C1OC(=O)CC(O)CCC(C)(O)C(OC(=O)NCc2ccccn2)/C=C/C1C (stereo not shown) [B56, (8E,12E,14E)-3,6,21-Trihydroxy-6,10,12,16,20-pentamethyl-7-N-(2-pyridylmethyl)carbamoyloxy-18,19-epoxytricosa-8,12,14-trien-11-olide]",0.5 to 100 nM
4,"CCC(O)C(C)C1OC1CC(C)/C=C/C=C(\C)C1OC(=O)CC(O)CCC(C)(O)C(OC(=O)NCc2cccnc2)/C=C/C1C (stereo not shown) [B57, (8E,12E,14E)-3,6,21-Trihydroxy-6,10,12,16,20-pentamethyl-7-N-(3-pyridylmethyl)carbamoyloxy-18,19-epoxytricosa-8,12,14-trien-11-olide]",0.5 to 100 nM
5,"CCC(O)C(C)C1OC1CC(C)/C=C/C=C(\C)C1OC(=O)CC(O)CCC(C)(O)C(OC(=O)NCc2ccncc2)/C=C/C1C (stereo not shown) [B58, (8E,12E,14E)-3,6,21-Trihydroxy-6,10,12,16,20-pentamethyl-7-N-(4-pyridylmethyl)carbamoyloxy-18,19-epoxytricosa-8,12,14-trien-11-olide]",0.5 to 100 nM
6,"CCC(O)C(C)C1OC1CC(C)/C=C/C=C(\C)C1OC(=O)CC(O)CCC(C)(O)C(OC(=O)NCCN2CCOCC2)/C=C/C1C (stereo not shown) [B59, (8E,12E,14E)-3,6,21-Trihydroxy-6,10,12,16,20-pentamethyl-7-N-(2-(morpholin-4-yl)ethyl)carbamoyloxy-18,19-epoxytricosa-8,12,14-trien-11-olide]",0.5 to 100 nM
7,"CCC(O)C(C)C1OC1CC(C)/C=C/C=C(\C)C1OC(=O)CC(O)CCC(C)(O)C(OC(=O)NCCCN2CCOCC2)/C=C/C1C (stereo not shown) [B60, (8E,12E,14E)-3,6,21-Trihydroxy-6,10,12,16,20-pentamethyl-7-N-(3-(morpholin-4-yl)propyl)carbamoyloxy-18,19-epoxytricosa-8,12,14-trien-11-olide]",0.5 to 100 nM
8,"CCC(O)C(C)C1OC1CC(C)/C=C/C=C(\C)C1OC(=O)CC(O)CCC(C)(O)C(OC(=O)N2CCCNCC2)/C=C/C1C (stereo not shown) [B61, (8E,12E,14E)-3,6,21-Trihydroxy-6,10,12,16,20-pentamethyl-7-((homopiperazin-1-yl)carbonyl)oxy-18,19-epoxytricosa-8,12,14-trien-11-olide]",0.5 to 100 nM
9,"CCC(O)C(C)C1OC1CC(C)/C=C/C=C(\C)C1OC(=O)CC(O)CCC(C)(O)C(OC(=O)N2CCCN(C)CC2)/C=C/C1C (stereo not shown) [B62, (8E,12E,14E)-3,6,21-Trihydroxy-6,10,12,16,20-pentamethyl-7-((4-methylhomopiperazin-1-yl)carbonyl)oxy-18,19-epoxytricosa-8,12,14-trien-11-olide]",0.5 to 100 nM
10,"CCC(O)C(C)C1OC1CC(C)/C=C/C=C(\C)C1OC(=O)CC(O)CCC(C)(O)C(OC(=O)NCCN2CCCCC2)/C=C/C1C (stereo not shown) [B63, (8E,12E,14E)-3,6,21-Trihydroxy-6,10,12,16,20-pentamethyl-7-N-(2-(piperidin-1-yl)ethyl)carbamoyloxy-18,19-epoxytricosa-8,12,14-trien-11-olide]",0.5 to 100 nM
11,"CCC(O)C(C)C1OC1CC(C)/C=C/C=C(\C)C1OC(=O)CC(O)CCC(C)(O)C(OC(=O)NCCN2CCCC2)/C=C/C1C (stereo not shown) [B64, (8E,12E,14E)-3,6,21-Trihydroxy-6,10,12,16,20-pentamethyl-7-N-(2-(pyrrolidin-1-yl)ethyl)carbamoyloxy-18,19-epoxytricosa-8,12,14-trien-11-olide]",0.5 to 100 nM
12,"CCC(O)C(C)C1OC1CC(C)/C=C/C=C(\C)C1OC(=O)CC(O)CCC(C)(O)C(OC(=O)N2CCN(CC)CC2)/C=C/C1C (stereo not shown) [B65, (8E,12E,14E)-3,6,21-Trihydroxy-6,10,12,16,20-pentamethyl-7-((4-ethylpiperazin-1-yl)carbonyl)oxy-18,19-epoxytricosa-8,12,14-trien-11-olide]",0.5 to 100 nM
13,"CCC(O)C(C)C1OC1CC(C)/C=C/C=C(\C)C1OC(=O)CC(O)CCC(C)(O)C(OC(=O)N2CCN(CCO)CC2)/C=C/C1C (stereo not shown) [B66, (8E,12E,14E)-3,6,21-Trihydroxy-6,10,12,16,20-pentamethyl-7-((4-(2-hydroxyethyl)piperazin-1-yl)carbonyl)oxy-18,19-epoxytricosa-8,12,14-trien-11-olide]",0.5 to 100 nM
14,"CCC(O)C(C)C1OC1CC(C)/C=C/C=C(\C)C1OC(=O)CC(O)CCC(C)(O)C(OC(=O)N2CC(C)NCC2C)/C=C/C1C (stereo not shown) [B67, (8E,12E,14E)-3,6,21-Trihydroxy-6,10,12,16,20-pentamethyl-7-((2,5-dimethylpiperazin-1-yl)carbonyl)oxy-18,19-epoxytricosa-8,12,14-trien-11-olide]",0.5 to 100 nM
15,"CCC(O)C(C)C1OC1CC(C)/C=C/C=C(\C)C1OC(=O)CC(O)CCC(C)(O)C(OC(=O)NC(=O)CCl)/C=C/C1C (stereo not shown) [B69, (8E,12E,14E)-7-(N-Chloroacetyl)carbamoyloxy-3,6,21-trihydroxy-6,10,12,16,20-pentamethyl-18,19-epoxytricosa-8,12,14-trien-11-olide]",0.5 to 100 nM
16,"CC/C(=N\OC)C(C)C1OC1CC(C)/C=C/C=C(\C)C1OC(=O)CC(O)CCC(C)(O)C(OC(C)=O)/C=C/C1C (stereo not shown) [B74, (8E,12E,14E)-7-Acetoxy-3,6-dihydroxy-21-methoxyimino-6,10,12,16,20-pentamethyl-18,19-epoxytricosa-8,12,14-trien-11-olide]",0.5 to 100 nM
17,"CC/C(=N\OCc1ccccc1)C(C)C1OC1CC(C)/C=C/C=C(\C)C1OC(=O)CC(O)CCC(C)(O)C(OC(C)=O)/C=C/C1C (stereo not shown) [B75, (8E,12E,14E)-7-Acetoxy-21-benzyloxyimino-3,6-dihydroxy-6,10,12,16,20-pentamethyl-18,19-epoxytricosa-8,12,14-trien-11-olide]",0.5 to 100 nM
18,CCC(O)C(C)C1OC1CC(C)/C=C/C=C(\C)C1OC(=O)CC(O)CCC(C)(O)C(OC(=O)N2CCC(N3CCCCC3)CC2)/C=C/C1C (stereo not shown) [B77],0.5 to 100 nM
19,"CCC(O)C(C)C1OC1CC(C)/C=C/C=C(\C)C1OC(=O)CC(O)CCC(C)(O)C(OC(=O)NCCCN2CCN(C)CC2)/C=C/C1C (stereo not shown) [B78, (8E,12E,14E)-3,6,21-Trihydroxy-6,10,12,16,20-pentamethyl-7-N-(3-(4-methylpiperazin-1-yl)propyl)carbamoyloxy-18,19-epoxytricosa-8,12,14-trien-11-olide]",0.5 to 100 nM
20,"CCC(O)C(C)C1OC1CC(C)/C=C/C=C(\C)C1OC(=O)CC(O)CCC(C)(O)C(OC(=O)NC2CCN(C)CC2)/C=C/C1C (stereo not shown) [B79, (8E,12E,14E)-3,6,21-Trihydroxy-6,10,12,16,20-pentamethyl-7-N-(1-methylpiperidin-4-yl)carbamoyloxy-18,19-epoxytricosa-8,12,14-trien-11-olide]",0.5 to 100 nM
21,"CCC(O)C(C)C1OC1CC(C)/C=C/C=C(\C)C1OC(=O)CC(O)CCC(C)(O)C(OC(=O)N(C)C2CCN(C)CC2)/C=C/C1C (stereo not shown) [B80, (8E,12E,14E)-3,6,21-Trihydroxy-6,10,12,16,20-pentamethyl-7-N-methyl-N-(1-methylpiperidin-4-yl)carbamoyloxy-18,19-epoxytricosa-8,12,14-trien-11-olide]",0.5 to 100 nM
22,"CCC(O)C(C)C1OC1CC(C)/C=C/C=C(\C)C1OC(=O)CC(O)CCC(C)(O)C(OC(=O)N2CC(C)NC(C)C2)/C=C/C1C (stereo not shown) [B81, (8E,12E,14E)-3,6,21-Trihydroxy-6,10,12,16,20-pentamethyl-7-((3,5-dimethylpiperazin-1-yl)carbonyl)oxy-18,19-epoxytricosa-8,12,14-trien-11-olide]",0.5 to 100 nM
